Source: patent publication US7049331B2, “1,2,4-thiadiazole derivatives as melanocortin receptor modulators” (Ortho-McNeil Pharmaceutical, Inc., priority 2001, dated 2006)

What was measured:
[1] = target: T1, melanocortin MC-4 receptor (Homo sapiens, UniProt P32245); assay: Melanocortin MC-4 Receptor Binding Assay (SPA)
T1 construct: purchased Receptor Biology Inc
Experimental: Melanocortin MC-4 Receptor Binding Assay Melanocortin [MC-4]-membrane [purchased from Receptor Biology Inc] was coupled to wheat germ agglutinin coated polyvinyl toluene-Scintillation Proximity Assay beads [purchased from Amersham Pharmacia Inc.] for 30 min at 25° C. Into each well of a 96-well Opti plate [purchased from Packard, Calif.], 2.5 μg of membrane and 0.25 mg of beads were mixed in a volume of 100 μL media. […] Test compounds (1.5 μL) at 1 mM in 30% DMSO-50 mM HEPES, pH 7.4 buffer was added to separate wells on the plate. Radioactive ligand ^125I-NDP-melanocyte stimulating hormone [NEN, 2000Ci/mmol] was added to each well (48.5 μL per well, 40 pM final concentration). The plate was then sealed and let stand for 16 hr at 25° C. NDP-Melanocyte stimulating hormone peptide and α-melanocyte stimulating hormone peptide [purchased from Palomar Research Inc, 1 μM] were used as reference inhibitor compounds to define non-specific binding (N). Total binding (T) was defined using 30% DMSO-50 mM HEPES, pH 7.4 buffer. Bound radioactivity for each well (Y), measured at counts per minute (cpm) was measured in a TopCount [Packard, Calif.]. Percent inhibition was calculated as: […] The procedures described above for the melanocortin MC-4 receptor were repeated for the melanocortin MC-3 receptor. Following the procedures described, representative compounds of the present invention were tested for binding in the MC-4 and/or MC-3 assay, as listed in Table 4.

Cortical Cells = assay: Neurite Cell Outgrowth Assay, cortical cells; type: cell-based; conditions: Rattus norvegicus; 50 nM; percent change over the vehicle response; NA = no change/not active
Source text: (§1) Dissociated hippocampal and cortical cell cultures were established from embryonic day 18 rat fetuses as described by Mattson, M. P., Barger, S. W., Begley, J, and Mark, R. J., Methods Cell Biol., 1994, 46:[…]. Briefly, fetuses were removed via cesarean section from pregnant moms (Sprague-Dawley) and anesthetized with halothane according to the AVMA Panel on Euthanasia. Pups were decapitated and the brains were removed and placed in HEPES-buffered Hank's Balanced Salt solution (HBSS; Gibco). The hippocampi and cortices were dissected out and pooled according to tissue-type. Tissue was trypsinized for 15 min (1 mg/ml trypsin-HBSS; Worthington), rinsed with fresh HBSS, incubated in trypsin inhibitor (1 mg/ml; Sigma) for 5 min, rinsed again with fresh HBSS and then triturated in 1 ml fresh HBSS with a fire-polished glass pipette. Dissociated cells were seeded at 30,000 cells/well onto poly-D-lysine coated 96-well plates (Collaborative BioScience). Each well contained 100 μl of Eagle's Minimal Essential Media (MEM; Gibco) supplemented with 26 mM NaHCO3 (Sigma), 56 mM glucose (Sigma), 15 mM KCl (Sigma), 1 mM sodium pyruvate (Sigma), 1.1 mM L-glutamine (Sigma), 10% (v/v) heat-inactivated fetal bovine serum (Hyclone), and 0.001% gentamicin sulfate (Sigma) (pH 7.4). Cells were allowed to attach for 24 h in a humidified 37° C. 5% CO2 incubator before experimental treatment. The culture media was aspirated and exchanged with fresh media every 3 days.
(§2) Twenty-four hours after plating, cultures were treated with vehicle (PBS+0.1% BSA), alpha-melanocyte stimulating hormone (α-MSH) or test compound (diluted in DPBS). Each treatment condition was run in quadruplicate. On the third day in culture, the media was aspirated off and replaced with fresh media and test compound. At one week in culture, the cells were fixed with 10% phosphate-buffered formalin for 15 min, then rinsed with DPBS (Sigma) and placed in blocking serum for 30 min (horse serum; 1:50 dilution in DPBS; Vector Labs). The cultures were rinsed again with DPBS and then incubated in primary antibody for 2 hr (microtubule-associated protein-2 (MAP-2) is a selective marker for dendritic processes; anti-mouse monoclonal (Chemicon); 1:1000 dilution of MAP-2 in antibody diluent (Zymed)). Negative control wells were incubated in antibody diluent alone. Background signal was determined by blank wells (cell-free) incubated with or without antibody. Cultures were rinsed again with DPBS and then placed in fluorescein for 1 hr (FITC; anti-mouse IgG; rat adsorbed; 1:50 dilution in DPBS; Vector Labs). Cultures were rinsed a final time with DPBS and the plates were then read on a Cytofluor 4000 fluorescence plate reader. Neurite outgrowth was expressed as percent change from control (vehicle).
(§3) The data are expressed as percent change over the vehicle response. All compounds were screened at 50 nM. The abbreviation NA indicates no change/not active; the abbreviation ND indicates a compound not tested/response not determined.

Hippocampal Cells = assay: Neurite Cell Outgrowth Assay, hippocampal cells; type: cell-based; conditions: Rattus norvegicus; 50 nM; percent change over the vehicle response; NA = no change/not active
Source text: as §1, §2, §3

T1 sequence (P32245 whole entry): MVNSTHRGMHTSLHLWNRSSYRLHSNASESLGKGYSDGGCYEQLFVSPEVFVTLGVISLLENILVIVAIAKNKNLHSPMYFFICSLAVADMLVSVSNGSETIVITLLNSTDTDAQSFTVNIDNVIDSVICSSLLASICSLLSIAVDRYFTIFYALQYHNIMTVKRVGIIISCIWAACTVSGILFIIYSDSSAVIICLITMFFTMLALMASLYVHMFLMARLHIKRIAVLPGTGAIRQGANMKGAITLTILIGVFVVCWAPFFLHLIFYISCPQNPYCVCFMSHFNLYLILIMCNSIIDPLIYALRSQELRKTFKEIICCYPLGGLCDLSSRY

## c1ccc(Nc2nc(-c3ccccc3)[n+](-c3ccccc3)s2)cc1 [Compound 22]
[1]
  IC50: 124 nM
Cortical Cells
  activation at 0.05 µM: 30%

## COc1ccc(Nc2nc(-c3ccccc3)[n+](-c3ccccc3)s2)cc1 [Compound 23]
[1]
  IC50: 124 nM
Hippocampal Cells
  activation at 0.05 µM: 10%
Cortical Cells
  activation at 0.05 µM: 20%

## COc1ccccc1Nc1nc(-c2ccccc2)[n+](-c2ccccc2)s1 [Compound 24]
[1]
  IC50: 76 nM
Hippocampal Cells
  activation at 0.05 µM: 10%
Cortical Cells
  activation at 0.05 µM: 16%

## Cc1ccc(Nc2nc(-c3ccccc3)[n+](-c3ccccc3)s2)cc1 [Compound 25]
[1]
  IC50: 57 nM
Cortical Cells
  activation at 0.05 µM: 23%

## COc1ccccc1-[n+]1sc(Nc2ccccc2)nc1-c1ccccc1 [Compound 28]
[1]
  IC50: 68 nM
Cortical Cells
  activation at 0.05 µM: 25%

## COc1ccccc1Nc1nc(-c2ccccc2)[n+](-c2ccccc2OC)s1 [Compound 30]
[1]
  IC50: 103 nM

## COc1ccccc1-[n+]1sc(Nc2ccc(Cl)cc2)nc1-c1ccccc1 [Compound 33]
[1]
  IC50: 91 nM
Cortical Cells
  activation at 0.05 µM: 21%

## COc1ccc(-[n+]2sc(Nc3ccccc3)nc2-c2ccccc2)cc1 [Compound 35]
[1]
  IC50: 100 nM
Cortical Cells
  activation at 0.05 µM: 28%

## COc1ccc(Nc2nc(-c3ccccc3)[n+](-c3ccc(OC)cc3)s2)cc1 [Compound 36]
[1]
  IC50: 79 nM
Cortical Cells
  activation at 0.05 µM: 16%

## COc1ccc(-[n+]2sc(Nc3ccccc3OC)nc2-c2ccccc2)cc1 [Compound 37]
[1]
  IC50: 72 nM
Cortical Cells
  activation at 0.05 µM: 26%

## COc1ccc(-[n+]2sc(Nc3ccc(C)cc3)nc2-c2ccccc2)cc1 [Compound 38]
[1]
  IC50: 159 nM

## COc1ccc(-[n+]2sc(Nc3ccccc3C)nc2-c2ccccc2)cc1 [Compound 39]
[1]
  IC50: 146 nM

## COc1ccc(-[n+]2sc(Nc3ccc(Cl)cc3)nc2-c2ccccc2)cc1 [Compound 40]
[1]
  IC50: 133 nM
Hippocampal Cells
  activation at 0.05 µM: 26%

## COc1ccc(-[n+]2sc(Nc3ccccc3Cl)nc2-c2ccccc2)cc1 [Compound 41]
[1]
  IC50: 483 nM
Hippocampal Cells
  activation at 0.05 µM: 36%
Cortical Cells
  activation at 0.05 µM: 5%

## Clc1ccccc1-[n+]1sc(Nc2ccccc2)nc1-c1ccccc1 [Compound 42]
[1]
  IC50: 482 nM
Hippocampal Cells
  activation at 0.05 µM: 26%

## COc1ccc(Nc2nc(-c3ccccc3)[n+](-c3ccccc3Cl)s2)cc1 [Compound 43]
[1]
  IC50: 237 nM
Hippocampal Cells
  activation at 0.05 µM: 30%
Cortical Cells
  activation at 0.05 µM: 37%

## COc1ccccc1Nc1nc(-c2ccccc2)[n+](-c2ccccc2Cl)s1 [Compound 44]
[1]
  IC50: 89 nM
Hippocampal Cells
  activation at 0.05 µM: 43%
Cortical Cells
  activation at 0.05 µM: 19%

## Cc1ccc(Nc2nc(-c3ccccc3)[n+](-c3ccccc3Cl)s2)cc1 [Compound 45]
[1]
  IC50: 246 nM
Hippocampal Cells
  activation at 0.05 µM: 46%
Cortical Cells
  activation at 0.05 µM: 25%

## Cc1ccccc1Nc1nc(-c2ccccc2)[n+](-c2ccccc2Cl)s1 [Compound 46]
[1]
  IC50: 368 nM
Hippocampal Cells
  activation at 0.05 µM: 40%
Cortical Cells
  activation at 0.05 µM: 19%

## Clc1ccc(Nc2nc(-c3ccccc3)[n+](-c3ccccc3Cl)s2)cc1 [Compound 47]
[1]
  IC50: 874 nM
Hippocampal Cells
  activation at 0.05 µM: 20%
Cortical Cells
  activation at 0.05 µM: 13%

## Clc1ccccc1Nc1nc(-c2ccccc2)[n+](-c2ccccc2Cl)s1 [Compound 48]
[1]
  IC50: 444 nM
Cortical Cells
  activation at 0.05 µM: 19%

## COc1ccc(CNc2nc(-c3ccccc3)[n+](-c3ccccc3)s2)cc1 [Compound 51]
[1]
  IC50: 1000 nM
Hippocampal Cells
  activation at 0.05 µM: 74%
Cortical Cells
  activation at 0.05 µM: 28%

## COc1ccccc1CNc1nc(-c2ccccc2)[n+](-c2ccccc2)s1 [Compound 52]
[1]
  IC50: 1000 nM
Hippocampal Cells
  activation at 0.05 µM: 65%

## Cc1ccc(CNc2nc(-c3ccccc3)[n+](-c3ccccc3)s2)cc1 [Compound 53]
[1]
  IC50: 1000 nM
Hippocampal Cells
  activation at 0.05 µM: 67%

## Cc1ccccc1CNc1nc(-c2ccccc2)[n+](-c2ccccc2)s1 [Compound 54]
[1]
  IC50: 800 nM
Hippocampal Cells
  activation at 0.05 µM: 45%

## Clc1ccc(CNc2nc(-c3ccccc3)[n+](-c3ccccc3)s2)cc1 [Compound 55]
[1]
  IC50: 800 nM
Hippocampal Cells
  activation at 0.05 µM: 19%

## Clc1ccccc1CNc1nc(-c2ccccc2)[n+](-c2ccccc2)s1 [Compound 56]
[1]
  IC50: 3000 nM
Hippocampal Cells
  activation at 0.05 µM: 33%

## COc1ccc(-c2nc(Nc3ccccc3)s[n+]2-c2ccc(OC)cc2)cc1 [Compound 57]
[1]
  IC50 MC-4 (nM) (SPA): inactive
Hippocampal Cells
  activation at 0.05 µM: 9%

## COc1ccc(Nc2nc(-c3ccc(OC)cc3)[n+](-c3ccc(OC)cc3)s2)cc1 [Compound 58]
[1]
  IC50 MC-4 (nM) (SPA): inactive
Hippocampal Cells
  activation at 0.05 µM: 72%
Cortical Cells
  activation at 0.05 µM: 10%

## COc1ccc(-c2nc(Nc3ccccc3OC)s[n+]2-c2ccc(OC)cc2)cc1 [Compound 59]
[1]
  IC50 MC-4 (nM) (SPA): inactive
Hippocampal Cells
  activation at 0.05 µM: 61%
Cortical Cells
  activation at 0.05 µM: 21%

## COc1ccc(-c2nc(Nc3ccc(C)cc3)s[n+]2-c2ccc(OC)cc2)cc1 [Compound 60]
[1]
  IC50 MC-4 (nM) (SPA): inactive
Hippocampal Cells
  activation at 0.05 µM: 66%
Cortical Cells
  activation at 0.05 µM: 14%

## COc1ccc(-c2nc(Nc3ccccc3C)s[n+]2-c2ccc(OC)cc2)cc1 [Compound 61]
[1]
  IC50 MC-4 (nM) (SPA): inactive
Hippocampal Cells
  activation at 0.05 µM: 66%
Cortical Cells
  activation at 0.05 µM: 17%

## COc1ccc(-c2nc(Nc3ccc(Cl)cc3)s[n+]2-c2ccc(OC)cc2)cc1 [Compound 62]
[1]
  IC50 MC-4 (nM) (SPA): inactive
Hippocampal Cells
  activation at 0.05 µM: 13%
Cortical Cells
  activation at 0.05 µM: 13%

## COc1ccc(-c2nc(Nc3ccccc3Cl)s[n+]2-c2ccc(OC)cc2)cc1 [Compound 63]
[1]
  IC50: 1000 nM
Hippocampal Cells
  activation at 0.05 µM: 20%
Cortical Cells
  activation at 0.05 µM: 17%

## COc1ccc(-c2nc(Nc3cccnc3)s[n+]2-c2ccc(OC)cc2)cc1 [Compound 64]
[1]
  IC50: 1200 nM
Hippocampal Cells
  activation at 0.05 µM: 22%
Cortical Cells
  activation at 0.05 µM: 12%

## COc1ccccc1-[n+]1sc(Nc2ccccc2)nc1-c1ccc(C)cc1 [Compound 65]
[1]
  IC50: 114 nM

## COc1ccc(Nc2nc(-c3ccc(C)cc3)[n+](-c3ccccc3OC)s2)cc1 [Compound 66]
[1]
  IC50: 120 nM

## COc1ccccc1-[n+]1sc(Nc2ccc(C)cc2)nc1-c1ccc(C)cc1 [Compound 68]
[1]
  IC50: 110 nM

## COc1ccccc1-[n+]1sc(Nc2ccccc2C)nc1-c1ccc(C)cc1 [Compound 69]
[1]
  IC50: 139 nM

## COc1ccccc1-[n+]1sc(Nc2ccccc2Cl)nc1-c1ccc(C)cc1 [Compound 71]
[1]
  IC50: 234 nM

## COc1ccccc1-[n+]1sc(Nc2cccnc2)nc1-c1ccc(C)cc1 [Compound 72]
[1]
  IC50: 155 nM

## COc1ccccc1-[n+]1sc(Nc2cccnc2)nc1-c1ccccc1 [Compound 73]
[1]
  IC50: 725 nM

## COc1ccc(Nc2nc(-c3ccccc3OC)[n+](-c3ccccc3OC)s2)cc1 [Compound 75]
[1]
  IC50: 103 nM

## COc1ccccc1-c1nc(Nc2ccc(C)cc2)s[n+]1-c1ccccc1OC [Compound 77]
[1]
  IC50: 4.4 nM

## COc1ccccc1-c1nc(Nc2ccccc2C)s[n+]1-c1ccccc1OC [Compound 78]
[1]
  IC50: 99 nM

## COc1ccccc1-c1nc(Nc2ccc(Cl)cc2)s[n+]1-c1ccccc1OC [Compound 79]
[1]
  IC50: 216 nM

## COc1ccccc1-c1nc(Nc2cccnc2)s[n+]1-c1ccccc1OC [Compound 81]
[1]
  IC50: 672 nM
